Test results: patent US9309242B2, “Substituted pyrido[2,3-b]pyrazines as FGFR kinase inhibitors” (priority 2011, dated 2016)
Like-named read-outs stand apart in the source and are kept apart here.

Experiments:
[1] = tested on: Ba/F3-FGFR1-transfected cells; assay: Ba/F3-FGFR1 (plus IL3) cellular proliferation assay, counterscreen with 10 ng/ml murine IL3; type: cell-based; settings: plus IL3 (10 ng/ml murine IL3, counterscreen); read-out: BAF3-FGFR1 (PLUS IL3) pIC50 (converted)
Procedure, shortened: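 Ba/F3-FGFR1 cells (20000/well) in RPMI-1640 with 10% FBS exposed to compound for 24 h at 37° C., 5% CO2, then Alamar Blue (resazurin) added for 4 h; fluorescence read at ex 540/em 590 nm. Counterscreen run identically with 10 ng/ml murine IL3.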

FGFR1 (h) = FGFR1 (h) (Homo sapiens, UniProt P11362); assay: FGFR1 (enzymatic assay), TR-FRET; type: biochemical; settings: read-out: FGFR 1 pIC50 (converted)
Sequence of FGFR1 (h) (P11362 22-822): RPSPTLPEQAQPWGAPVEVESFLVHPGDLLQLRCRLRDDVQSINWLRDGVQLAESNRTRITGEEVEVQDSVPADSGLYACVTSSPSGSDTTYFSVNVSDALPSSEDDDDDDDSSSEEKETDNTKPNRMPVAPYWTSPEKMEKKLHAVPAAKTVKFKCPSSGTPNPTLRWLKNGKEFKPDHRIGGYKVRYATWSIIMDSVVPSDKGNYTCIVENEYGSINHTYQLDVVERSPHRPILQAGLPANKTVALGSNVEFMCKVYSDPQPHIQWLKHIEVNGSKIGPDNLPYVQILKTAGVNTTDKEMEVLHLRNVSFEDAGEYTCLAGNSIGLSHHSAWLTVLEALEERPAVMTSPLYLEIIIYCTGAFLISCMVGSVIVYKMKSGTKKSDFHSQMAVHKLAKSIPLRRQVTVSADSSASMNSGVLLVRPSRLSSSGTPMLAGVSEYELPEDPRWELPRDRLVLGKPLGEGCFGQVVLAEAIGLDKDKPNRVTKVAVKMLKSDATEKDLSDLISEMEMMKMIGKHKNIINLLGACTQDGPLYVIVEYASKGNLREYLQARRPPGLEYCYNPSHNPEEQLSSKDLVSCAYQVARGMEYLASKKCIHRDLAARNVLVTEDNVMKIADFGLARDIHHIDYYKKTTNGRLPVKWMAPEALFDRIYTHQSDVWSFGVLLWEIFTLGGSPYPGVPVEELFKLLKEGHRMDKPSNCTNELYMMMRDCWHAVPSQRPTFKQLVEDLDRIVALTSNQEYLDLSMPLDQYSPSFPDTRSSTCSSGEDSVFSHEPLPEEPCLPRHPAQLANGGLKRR

[2] = tested on: Ba/F3-KDR-transfected cells; assay: Ba/F3-KDR (plus IL3) cellular proliferation assay, counterscreen with 10 ng/ml murine IL3; type: cell-based; settings: plus IL3 (10 ng/ml murine IL3, counterscreen); read-out: BAF3-KDR (PLUS IL3) pIC50 (converted)
Procedure, shortened: (§1)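 Ba/F3-KDR cells (20000 per well) in phenol red-free RPMI-1640 with 10% FBS were exposed to compound for 24 hours at 37° C, 5% CO2. Alamar Blue (resazurin) was then added for 4 hours, and fluorescence was read at ex. 540 nm/em. 590 nm.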

FGFR4 (h) = FGFR4 (h) (Homo sapiens, UniProt P22455); assay: FGFR4 (enzymatic assay), TR-FRET; type: biochemical; settings: FGFR 4 pIC50, enzymatic assay
[3] = molecular target: T1, Ba/F3-FGFR1-transfected cells (Homo sapiens, UniProt P11362); assay: Ba/F3-FGFR1 (minus IL3) cellular proliferation assay, Alamar Blue; type: cell-based
T1 construct: BAF3-FGFR1 (MIN IL3) pIC50; other: minus IL3
T1 sequence (P11362 whole entry, change not shown): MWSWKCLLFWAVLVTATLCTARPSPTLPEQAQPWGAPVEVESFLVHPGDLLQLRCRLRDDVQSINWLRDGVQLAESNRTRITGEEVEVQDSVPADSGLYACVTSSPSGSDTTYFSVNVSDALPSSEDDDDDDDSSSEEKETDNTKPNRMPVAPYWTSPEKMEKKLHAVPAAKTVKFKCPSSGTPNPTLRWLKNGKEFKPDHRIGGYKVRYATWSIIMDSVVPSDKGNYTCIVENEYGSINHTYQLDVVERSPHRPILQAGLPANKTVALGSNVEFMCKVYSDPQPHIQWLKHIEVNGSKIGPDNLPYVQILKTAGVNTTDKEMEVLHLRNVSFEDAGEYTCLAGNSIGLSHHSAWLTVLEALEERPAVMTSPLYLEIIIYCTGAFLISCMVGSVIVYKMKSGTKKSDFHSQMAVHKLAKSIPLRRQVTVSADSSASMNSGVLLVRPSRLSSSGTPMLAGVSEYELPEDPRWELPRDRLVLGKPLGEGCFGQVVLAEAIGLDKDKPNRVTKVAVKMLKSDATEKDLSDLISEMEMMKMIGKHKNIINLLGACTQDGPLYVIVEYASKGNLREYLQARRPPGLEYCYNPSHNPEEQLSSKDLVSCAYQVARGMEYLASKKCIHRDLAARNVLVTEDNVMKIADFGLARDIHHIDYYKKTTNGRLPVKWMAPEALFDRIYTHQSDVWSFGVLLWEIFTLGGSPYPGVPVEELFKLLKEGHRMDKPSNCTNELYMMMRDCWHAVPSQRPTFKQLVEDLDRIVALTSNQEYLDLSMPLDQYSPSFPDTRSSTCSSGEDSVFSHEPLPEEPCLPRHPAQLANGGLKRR
Procedure, shortened: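 Ba/F3 cells transfected with FGFR1 (20000 cells/well) were plated onto compound in phenol red-free RPMI-1640 with 10% FBS, 2 mM L-glutamine and gentamycin, then kept 24 h at 37 °C, 5% CO2. Alamar Blue (resazurin) was added for 4 h and fluorescence read at ex 540/em 590 nm.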

FGFR2 (h) = FGFR2 (h) (Homo sapiens, UniProt P21802); assay: FGFR2 (enzymatic assay), TR-FRET; type: biochemical; settings: enzymatic assay, read-out: FGFR 2 pIC50 (converted)
Sequence of FGFR2 (h) (P21802 22-821): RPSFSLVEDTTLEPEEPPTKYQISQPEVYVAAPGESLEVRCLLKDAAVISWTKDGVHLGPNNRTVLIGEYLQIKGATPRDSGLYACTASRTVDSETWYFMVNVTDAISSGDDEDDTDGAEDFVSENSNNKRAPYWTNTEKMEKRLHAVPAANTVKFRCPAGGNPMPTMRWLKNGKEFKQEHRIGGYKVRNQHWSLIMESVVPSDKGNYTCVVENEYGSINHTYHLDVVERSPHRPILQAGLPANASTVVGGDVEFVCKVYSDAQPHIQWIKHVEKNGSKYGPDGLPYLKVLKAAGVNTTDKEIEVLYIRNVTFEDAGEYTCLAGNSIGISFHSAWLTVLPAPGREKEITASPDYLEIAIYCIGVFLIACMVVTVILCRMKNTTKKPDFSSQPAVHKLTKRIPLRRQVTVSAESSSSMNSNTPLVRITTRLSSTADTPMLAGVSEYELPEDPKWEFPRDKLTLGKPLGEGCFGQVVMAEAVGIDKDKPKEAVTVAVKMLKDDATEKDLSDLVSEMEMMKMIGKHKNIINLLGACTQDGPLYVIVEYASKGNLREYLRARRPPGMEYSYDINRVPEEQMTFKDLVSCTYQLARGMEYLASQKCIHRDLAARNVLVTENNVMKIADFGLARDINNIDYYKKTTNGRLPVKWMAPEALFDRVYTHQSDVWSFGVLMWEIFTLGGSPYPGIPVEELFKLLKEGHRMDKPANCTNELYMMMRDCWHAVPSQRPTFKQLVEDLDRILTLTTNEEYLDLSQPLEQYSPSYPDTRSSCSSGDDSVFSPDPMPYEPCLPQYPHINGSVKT
Procedure, shortened: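 Kinase reaction in 50 mM HEPES pH 7.5 with 6 mM MnCl2, 1 mM DTT, 0.1 mM Na3VO4 and 0.01% Triton-X-100 contained FGFR2 (h) at 150 ng/ml. Biotinylated Flt3 peptide (500 nM) served as substrate with 0.4 μM ATP, compound added in 1% DMSO final.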

[4] = molecular target: T2, Ba/F3-FGFR3-transfected cells (Homo sapiens, UniProt P22607); assay: Ba/F3-FGFR3 (minus IL3) cellular proliferation assay, Alamar Blue; type: cell-based
T2 construct: BAF3-FGFR3 (MIN IL3) pIC50; other: minus IL3
T2 sequence (P22607 whole entry, change not shown): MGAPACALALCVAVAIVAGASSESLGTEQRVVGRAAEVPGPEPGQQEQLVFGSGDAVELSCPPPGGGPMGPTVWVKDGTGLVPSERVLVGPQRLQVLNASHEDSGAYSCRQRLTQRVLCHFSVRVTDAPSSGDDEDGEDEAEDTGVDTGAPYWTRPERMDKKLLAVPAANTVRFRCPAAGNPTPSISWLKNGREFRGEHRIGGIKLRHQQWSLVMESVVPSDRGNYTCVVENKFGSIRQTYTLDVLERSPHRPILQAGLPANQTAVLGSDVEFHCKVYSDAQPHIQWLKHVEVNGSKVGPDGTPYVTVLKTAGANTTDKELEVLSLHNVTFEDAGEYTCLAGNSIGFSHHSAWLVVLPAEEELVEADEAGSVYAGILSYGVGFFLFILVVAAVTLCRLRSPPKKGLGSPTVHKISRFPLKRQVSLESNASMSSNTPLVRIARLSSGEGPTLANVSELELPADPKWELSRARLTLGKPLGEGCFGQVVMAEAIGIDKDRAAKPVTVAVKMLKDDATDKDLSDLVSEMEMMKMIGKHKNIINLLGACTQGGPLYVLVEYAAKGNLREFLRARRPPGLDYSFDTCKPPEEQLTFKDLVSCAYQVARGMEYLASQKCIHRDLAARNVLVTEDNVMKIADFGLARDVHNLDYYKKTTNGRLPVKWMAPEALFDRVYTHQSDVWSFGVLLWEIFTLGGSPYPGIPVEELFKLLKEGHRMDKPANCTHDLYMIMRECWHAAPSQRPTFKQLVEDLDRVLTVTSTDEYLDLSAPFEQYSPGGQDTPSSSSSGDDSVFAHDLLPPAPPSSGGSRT
Procedure, shortened: (§2)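 Ba/F3 cells transfected with FGFR3 were seeded at 20000 cells/well in phenol red-free RPMI-1640 with 10% FBS over compound in DMSO and kept 24 hours at 37° C, 5% CO2. Alamar Blue (resazurin) was then added for 4 hours and fluorescence read at ex 540/em 590 nm. The counterscreen repeated this with 10 ng/ml murine IL3.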

[5] = tested on: Ba/F3-FGFR3-transfected cells; assay: Ba/F3-FGFR3 (plus IL3) cellular proliferation assay, counterscreen with 10 ng/ml murine IL3; type: cell-based; settings: plus IL3 (10 ng/ml murine IL3, counterscreen); read-out: BAF3-FGFR3 (PLUS IL3) pIC50 (converted)
Procedure, shortened: as §2

[6] = molecular target: T3, Ba/F3-KDR-transfected cells (Homo sapiens, UniProt P35968); assay: Ba/F3-KDR (minus IL3) cellular proliferation assay, Alamar Blue; type: cell-based
T3 construct: BAF3-KDR (MIN IL3) pIC50; other: minus IL3
T3 sequence (P35968 whole entry, change not shown): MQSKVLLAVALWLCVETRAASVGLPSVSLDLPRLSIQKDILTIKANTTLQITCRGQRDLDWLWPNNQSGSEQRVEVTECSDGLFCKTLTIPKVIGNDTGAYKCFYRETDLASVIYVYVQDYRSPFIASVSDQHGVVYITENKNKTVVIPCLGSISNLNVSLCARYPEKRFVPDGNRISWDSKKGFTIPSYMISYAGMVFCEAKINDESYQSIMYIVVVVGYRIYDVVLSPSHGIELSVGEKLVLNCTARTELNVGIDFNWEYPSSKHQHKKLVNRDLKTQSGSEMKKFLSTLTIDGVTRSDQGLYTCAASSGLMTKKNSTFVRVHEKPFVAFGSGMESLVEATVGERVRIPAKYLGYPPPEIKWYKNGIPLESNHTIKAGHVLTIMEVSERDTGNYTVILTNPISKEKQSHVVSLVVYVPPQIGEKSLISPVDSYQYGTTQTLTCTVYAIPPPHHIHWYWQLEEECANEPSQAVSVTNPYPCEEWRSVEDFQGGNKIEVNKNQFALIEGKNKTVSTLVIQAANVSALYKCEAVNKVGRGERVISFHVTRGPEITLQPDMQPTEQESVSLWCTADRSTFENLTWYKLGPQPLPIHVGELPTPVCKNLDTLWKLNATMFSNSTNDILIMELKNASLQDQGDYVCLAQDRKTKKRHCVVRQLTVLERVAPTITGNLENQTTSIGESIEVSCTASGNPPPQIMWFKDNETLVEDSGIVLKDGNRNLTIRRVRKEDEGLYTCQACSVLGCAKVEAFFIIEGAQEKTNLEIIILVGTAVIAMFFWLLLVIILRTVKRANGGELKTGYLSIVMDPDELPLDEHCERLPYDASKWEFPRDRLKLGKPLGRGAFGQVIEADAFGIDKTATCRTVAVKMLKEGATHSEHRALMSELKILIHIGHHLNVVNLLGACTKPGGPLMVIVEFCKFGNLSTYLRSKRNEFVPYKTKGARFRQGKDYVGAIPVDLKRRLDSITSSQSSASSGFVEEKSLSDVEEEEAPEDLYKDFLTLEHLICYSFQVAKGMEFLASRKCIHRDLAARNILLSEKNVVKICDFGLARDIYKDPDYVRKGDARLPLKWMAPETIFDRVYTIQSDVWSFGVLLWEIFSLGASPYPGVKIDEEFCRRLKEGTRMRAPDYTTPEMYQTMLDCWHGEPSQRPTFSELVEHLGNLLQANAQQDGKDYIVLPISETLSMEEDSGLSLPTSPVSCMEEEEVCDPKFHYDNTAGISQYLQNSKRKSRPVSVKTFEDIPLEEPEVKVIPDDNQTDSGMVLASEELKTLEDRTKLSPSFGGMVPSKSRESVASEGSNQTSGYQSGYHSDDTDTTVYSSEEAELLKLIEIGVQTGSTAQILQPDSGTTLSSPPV
Procedure, shortened: as §1

[7] = average values if tested multiple times

Structure (SMILES)	IC50 [1] [nM]	IC50 (FGFR1 (h)) [nM]	IC50 [2] [nM]	IC50 (FGFR4 (h)) [nM]	BAF3-FGFR1 (MIN IL3) pIC50 [3]	IC50 (FGFR2 (h)) [nM]	BAF3-FGFR3 (MIN IL3) pIC50 [4]	IC50 [5] [nM]	BAF3-KDR (MIN IL3) pIC50 [6]	IC50 (FGFR1 (h); [7]) [nM]	IC50 (FGFR4 (h); [7]) [nM]	IC50 (FGFR2 (h); [7]) [nM]
COc1cc(OC)cc(N(CC2CCCCO2)c2ccc3ncc(-c4cnn(C)c4)nc3n2)c1 (stereo not drawn) [Compound 129]	> 10000	3.47	> 10000	7.76	~7.15	2.4	~7.15	> 10000	5.33	–	–	–
COc1cc(OC)c(F)c(N(Cc2nccn2C)c2ccc3ncc(-c4cnn(C)c4)nc3n2)c1 [Compound 131]	> 10000	2.14	> 10000	7.41	7.62	2.63	7.25	> 10000	5.50	–	–	–
COc1cc(OC)c(F)c(N(Cc2nncn2C)c2ccc3ncc(-c4cnn(C)c4)nc3n2)c1 [Compound 132]	> 10000	5.62	> 10000	17.4	6.62	3.02	~6.64	> 10000	5.38	–	–	–
COc1cc(OC)cc(N(CCCN2CCCC2=O)c2ccc3ncc(-c4cnn(C)c4)nc3n2)c1 [Compound 134]	> 10000	8.71	> 10000	11.7	6.43	3.09	~6.64	> 10000	5.20	–	–	–
COc1cc(OC)c(F)c(N(Cc2nc(C)c[nH]2)c2ccc3ncc(-c4cnn(C)c4)nc3n2)c1 [Compound 135]	> 10000	1.17	> 10000	1.26	8.82	1.78	8.25	> 10000	6.64	–	–	–
COc1cc(OC)c(F)c(N(Cc2c[nH]c(C)n2)c2ccc3ncc(-c4cnn(C)c4)nc3n2)c1 [Compound 137]	> 10000	1.48	> 10000	1.7	~8.11	2.04	7.64	> 10000	6.19	–	–	–
COc1cc(OC)c(F)c(N(CC2CCCCO2)c2ccc3ncc(-c4cnn(C)c4)nc3n2)c1 (stereo not drawn) [Compound 139]	> 10000	3.16	> 10000	4.17	7.40	3.31	7.38	> 10000	5.33	–	–	–
COc1cc(OC)c(F)c(N(Cc2nn[nH]n2)c2ccc3ncc(-c4cnn(C)c4)nc3n2)c1 [Compound 140]	> 10000	11.7	> 10000	11.7	<5	4.47	<5	> 10000	<5	–	–	–
COc1cc(OC)c(F)c(N(CC2CCC(=O)N2)c2ccc3ncc(-c4cnn(C)c4)nc3n2)c1F (stereo not drawn) [Compound 192]	> 10000	–	> 10000	–	7.73	–	7.78	> 10000	6.11	1.15	2.09	2.51
COc1cc(OC)c(F)c(/N=c2\ccc3ncc(-c4cnn(C)c4)nc3n2CC2CCC(=O)N2)c1F (stereo not drawn) [Compound 193]	> 10000	–	> 10000	–	8.01	–	~8.06	> 10000	6.28	0.55	0.955	0.794
